Experimental data reported in patent US20030181436A1, “Treatment for AIDS, HIV, and other related diseases and compounds for use therewith” (priority 2001, published 2003).

Legend:
Assay type in all cases: cell-based
[1] = test system: TNFα induced ACH-2 cells (HIV IIIB provirus); test: ACH-2 latent infection assay, supernatant reverse transcriptase activity
Procedure: (§1) U1 and ACH-2 cells were obtained from the AIDS Research and Reference Reagent Program and maintained under standard culture conditions in RPMI 1640 supplemented with 10% fetal bovine serum (heat inactivated), supplemented with 2 mM […], 100U/ml penicillin and 100 μg/ml, streptomycin. U1 cells were derived from the histocytic leukemia cell line U937, and contain a single integrated copy (HIV IIIB) […] a cytokine and/or phorbol inducible provirus. ACH-2 cells are derived from the A3.01 T lymphoblastic cell line, and contain 2 copies of the HIV IIIB provirus, however only one is cytokine and/or phorbol inducible. Cultures were maintained in such a way as to ensure exponential growth of the populations. At the time of the assay, cells were collected by centrifugation and counted by hemacytometer. If cell viability by Trypan Blue dye exclusion was less than 70% the assay was terminated. The cells were adjusted to 5×10^4 cells/mL and 100 μL, placed in 96 well plates with 100 μL media containing a final concentration of […] TNFα and the test compound. Cultures were incubated for 3 days and supernatants harvested. Compound toxicity was determined by MTS dye reduction. Virus expression was measured by supernatant reverse transcriptasc activity.
Reverse transcriptase activity was measured in cell-free supernatants. Tritiated thymidine triphosphate (NEN) (TTP) was resuspended in distilled H2O at 5 Ci/mL. Poly rA and oligo dT were prepared as a stock solution which was kept at −20° C. The RT reaction buffer was prepared fresh on a daily basis and consists of 125 μL 1.0 M EGTA, 125 μL dH2O, 110 μL 10% SDS, 50 μL 1.0 M Tris (pH 7.4), 50 μL, 1.0 M DTT, and 40 μL 1.0 M MgCl2. These three solutions were mixed together in a ratio of 2 parts TTP, 1 part poly rA:oligo dT, and 1 part reaction buffer. Ten microliters of this reaction mixture was placed in a round bottom microtiter plate and 15 μL of virus containing supernatant was added and mixed. The plate was incubated at 37° C. in a water bath with a solid support to prevent submersion of the plate and incubated for 60 minutes. Following reaction, the reaction volume was spotted onto pieces of DE81 paper, washed 5 times for 5 minutes each in a 5% sodium phosphate buffer, 2 times for 1 minute each in distilled water, 2 times for 1 minute each in 70% ethanol, and then dried. Opti-Fluor O was added to each sample and incorporated radioactivity was quantitated utilizing a Wallac 1450 Microbetaplus liquid scintillation counter.

[2] = test system: HIV; test: HeLa CD4 LTR β-gal time of addition assay; conditions: single round, high M.O.I.
Description: This time of addition assay measures reproducible events from initial virus binding to the trans activation of the β-galactosidase reporter by newly produced Tat protein. This is a single round of infection assay and is thus “cleaner” and more “precise” than a multi-round time of addition assay. […] Since it is hypothesized that the K and Z compounds work by interfering with virus transcription the later possibility seems more likely. Thus the use of a time of addition assay with PBMCs was utilized.

[3] = test system: HeLa CD4 LTR β-gal cells; test: Cytotoxicity for HeLa CD4 LTR β-gal cells
Procedure: (§2) At assay termination the assay plates were stained with the soluble tetrazolium-based dye MTS (CellTiter® Reagent, Promega) to determined cell viability and quantify compound toxicity. […] At termination of the assay 20 μL of MTS reagent was added per well. The wells were incubated for 4 h at 37° C., 5% CO2. Adhesive plate scalers were used in place of the lids, the sealed plate was inverted several times to mix the soluble formazan product and the plate was read spectrophotometrically at 490 nm with a 650 nm reference wavelength on a Molecular Devices Vmax plate reader.
This cell line represents one of 3 standard models for performing time of addition assays.

[4] = test system: ACH-2 cells; test: ACH-2 assay, compound toxicity by MTS dye reduction; parameters: Y. CC / 9′. CC: unit not given here
Procedure: as §2, §1

## Zinc Iodiscorbate [Compound Z]
[1]
  activity in the ACH-2 assay: inactive
[1]; 0.00063 μg/ml, exp 2
  % VC: 96.4%
  RT ACTIVITY MEAN: 18594 cpm
[1]; 0.002 μg/ml, exp 2
  % VC: 106.4%
  RT ACTIVITY MEAN: 20516 cpm
[1]; 0.00625 μg/ml, exp 2
  % VC: 100.6%
  RT ACTIVITY MEAN: 19411 cpm
[1]; 0.02 μg/ml, exp 2
  % VC: 116.0%
  RT ACTIVITY MEAN: 22382 cpm
[1]; 0.0625 μg/ml, exp 2
  % VC: 111.6%
  RT ACTIVITY MEAN: 21532 cpm
[1]; 0.2 μg/ml, exp 2
  % VC: 114.0%
  RT ACTIVITY MEAN: 21983 cpm
[1]; 0.625 μg/ml, exp 2
  % VC: 104.2%
  RT ACTIVITY MEAN: 20108 cpm
[1]; 2 μg/ml, exp 2
  % VC: 104.5%
  RT ACTIVITY MEAN: 20151 cpm
[1]; 6.25 μg/ml, exp 2
  % VC: 60.8%
  RT ACTIVITY MEAN: 11729 cpm
[1]; 20 μg/ml, exp 2
  % VC: 5.1%
  RT ACTIVITY MEAN: 982 cpm
[1]; 62.5 μg/ml, exp 2
  % VC: 0.83%
  RT ACTIVITY MEAN: 160 cpm
[1]; 200 μg/ml, exp 2
  % VC: 0.41%
  RT ACTIVITY MEAN: 80 cpm
[1]; 0.00063 μG/Ml, exp 1
  % VC: 107.6%
  RT ACTIVITY (cpm) MEAN: 71887 cpm
[1]; 0.002 μG/Ml [c9], exp 1
  % VC: 107.8%
  RT ACTIVITY (cpm) MEAN: 71981 cpm
[1]; 0.002 μG/Ml [c11], exp 1
  % VC: 107.5%
  RT ACTIVITY (cpm) MEAN: 71843 cpm
[1]; 0.00625 μG/Ml, exp 1
  % VC: 93.3%
  RT ACTIVITY (cpm) MEAN: 62338 cpm
[1]; 0.0625 μG/Ml, exp 1
  % VC: 123.3%
  RT ACTIVITY (cpm) MEAN: 82351 cpm
[1]; 0.2 μG/Ml, exp 1
  % VC: 116.0%
  RT ACTIVITY (cpm) MEAN: 77521 cpm
[1]; 0.625 μG/Ml, exp 1
  % VC: 118.9%
  RT ACTIVITY (cpm) MEAN: 79421 cpm
[1]; 2 μG/Ml, exp 1
  % VC: 114.0%
  RT ACTIVITY (cpm) MEAN: 76125 cpm
[1]; 6.25 μG/Ml, exp 1
  % VC: 112.7%
  RT ACTIVITY (cpm) MEAN: 75319 cpm
[1]; 20 μG/Ml, exp 1
  % VC: 107.9%
  RT ACTIVITY (cpm) MEAN: 72063 cpm
[1]; 62.5 μG/Ml, exp 1
  % VC: 3.27%
  RT ACTIVITY (cpm) MEAN: 2186 cpm
[1]; 200 μG/Ml, exp 1
  % VC: 2.23%
  RT ACTIVITY (cpm) MEAN: 1487 cpm
[1]; ACH2, exp 1, Table 2
  IC50: IC50 (μG/Ml) = 43.51
[1]; ACH-2, experiment 1, Table 1
  IC50: 43.5 mg/L
[1]; ACH-2, experiment 2, Table 1
  IC50: 8.9 mg/L
[1]; exp 2, Table 4
  ACH2 EC50: 8.9 mg/L
[2]
  inhibition of HIV replication: failed to inhibit
[3]; 3.2 μG/mL
  TOXICITY VALUES (Cell Titer) MEAN: 1.156 O. D.
[3]; 10 μG/mL
  TOXICITY VALUES (Cell Titer) MEAN: 1.176 O. D.
[3]; 100 μG/mL
  % CC: 22.6%
  TOXICITY VALUES (Cell Titer) MEAN: 0.259 O. D.
[3]; 320 μG/mL
  % CC: 18.5%
  TOXICITY VALUES (Cell Titer) MEAN: 0.212 O. D.
[3]; 1000 μG/mL
  % CC: 18.2%
  TOXICITY VALUES (Cell Titer) MEAN: 0.208 O. D.
[3]; HeLa CD4 LTR β-gal cells
  TC50: 75 mg/L
[3]; initial testing
  cytotoxic effects on the HeLa CD4 LTR β-gal cells: no significant cytotoxic effects
[4]; 0.00063 μg/ml, exp 2
  TOXICITY VALUES (MTS) MEAN: 0.975 O, p.
[4]; 0.002 μg/ml, exp 2
  TOXICITY VALUES (MTS) MEAN: 0.929 O, p.
[4]; 0.00626 μg/ml, exp 2
  TOXICITY VALUES (MTS) MEAN: 0.961 O, p.
[4]; 0.02 μg/ml, exp 2
  9′. CC: 101.1
  TOXICITY VALUES (MTS) MEAN: 1.006 O, p.
[4]; 0.0625 μg/ml, exp 2
  TOXICITY VALUES (MTS) MEAN: 0.894 O, p.
[4]; 0.2 μg/ml, exp 2
  9′. CC: 81.0
  TOXICITY VALUES (MTS) MEAN: 0.807 O, p.
[4]; 0.625 μg/ml, exp 2
  9′. CC: 72.2
  TOXICITY VALUES (MTS) MEAN: 0.718 O, p.
[4]; 2 μg/ml, exp 2
  9′. CC: 70.0
  TOXICITY VALUES (MTS) MEAN: 0.696 O, p.
[4]; 6.25 μg/ml, exp 2
  9′. CC: 40.1
  TOXICITY VALUES (MTS) MEAN: 0.399 O, p.
[4]; 20 μg/ml, exp 2
  9′. CC: 0.0
  TOXICITY VALUES (MTS) MEAN: 0.000 O, p.
[4]; 62.5 μg/ml, exp 2
  9′. CC: 0.0
  TOXICITY VALUES (MTS) MEAN: 0.000 O, p.
[4]; 200 μg/ml, exp 2
  9′. CC: 0.0
  TOXICITY VALUES (MTS) MEAN: 0.000 O, p.
[4]; 0.00063 μG/Ml, exp 1
  TOXICITY VALUES (MTS) MEAN: 1.061 O. D.
[4]; 0.002 μG/Ml [c9], exp 1
  TOXICITY VALUES (MTS) MEAN: 1.049 O. D.
[4]; 0.002 μG/Ml [c11], exp 1
  TOXICITY VALUES (MTS) MEAN: 1.081 O. D.
[4]; 0.00625 μG/Ml, exp 1
  TOXICITY VALUES (MTS) MEAN: 1.019 O. D.
[4]; 0.0625 μG/Ml, exp 1
  TOXICITY VALUES (MTS) MEAN: 0.984 O. D.
[4]; 0.2 μG/Ml, exp 1
  TOXICITY VALUES (MTS) MEAN: 1.002 O. D.
[4]; 0.625 μG/Ml, exp 1
  TOXICITY VALUES (MTS) MEAN: 0.939 O. D.
[4]; 2 μG/Ml, exp 1
  % CC: 88.1%
  TOXICITY VALUES (MTS) MEAN: 0.885 O. D.
[4]; 6.25 μG/Ml, exp 1
  % CC: 81.8%
  TOXICITY VALUES (MTS) MEAN: 0.822 O. D.
[4]; 20 μG/Ml, exp 1
  % CC: 85.1%
  TOXICITY VALUES (MTS) MEAN: 0.856 O. D.
[4]; 62.5 μG/Ml, exp 1
  % CC: 6.3%
  TOXICITY VALUES (MTS) MEAN: 0.063 O. D.
[4]; 200 μG/Ml, exp 1
  % CC: 1.3%
  TOXICITY VALUES (MTS) MEAN: 0.013 O. D.
[4]; ACH2, exp 1, Table 2
  TC50: ITC50 (μG/Ml) = 38.94
[4]; ACH-2, experiment 1, Table 1
  TC50: 39
[4]; ACH-2, experiment 2, Table 1
  TC50: 4.8
[4]; exp 2
  ACH2 TC50: 4.8 mg/L
[4]; exp 2, listed as COMPOUND Z
  ACH2 TC50: TC50 (vg/mol) = 4.84 μg/ml
